According to ChEMBL document CHEMBL1157539, “Thousands of chemical starting points for antimalarial lead identification” (Nature, 2010):

tested on: Plasmodium falciparum; assay: GSK_TCMDC: Inhibition of Plasmodium falciparum 3D7 in whole erythrocytes, using parasite LDH activity as an index of growth.; assay type: functional, organism-based; settings: Plasmodium falciparum, 3D7

For `OC1CCCN(Cc2ccc(-c3ccc(-c4nc5ccccc5[nH]4)cc3)cc2)C1` (stereo not given), which XC50 is on record?
The XC50 was 838 nM.

Which XC50 does the source give for `Cc1c2ccncc2c(C)c2c1[nH]c1cc(Cc3ccccc3)c(O)cc12` here?
Its XC50 is 148 nM.

With `Cc1c(-c2cccc(C(C)(C)NC3CCN(Cc4ccccc4)CC3)c2)cnc(N)c1C` as the compound, how does the XC50 read?
The XC50 was 579 nM.

For `CC(C)(C(=O)Nc1ccc(C2CCC(NCC3CC3)CC2)c(Cl)c1)c1cccc(OC(F)F)c1` (stereo not given), which XC50 is on record?
The XC50 was 968 nM.

For `C=CCOC(=O)N1CCC(CNCc2ccc(-c3cccc(-c4nc5ccccc5[nH]4)c3)cc2)C1` (stereo not given), which XC50 is on record?
Its XC50 is 255 nM.

For `O=c1cc(NCCCNCc2csc(Br)c2Sc2ccc(Cl)cc2)[nH]c2ccccc12`, which XC50 is on record?
The XC50 was 849 nM.

For `NC(=O)C1CCN(Cc2ccc(-c3cccc(-c4nc5cc(F)ccc5[nH]4)c3)cc2)CC1`, which XC50 is on record?
Its XC50 is 879 nM.

How did the XC50 turn out when `CC1CN(c2cnn(Cc3cccc(NC(=O)Nc4ccc(F)cc4[N+](=O)[O-])c3)c(=O)c2Cl)CC(C)N1` (stereo not given) was run?
Its XC50 is 866 nM.

For `Fc1ccc(-c2oc(C3CCN(CCc4ccc(-c5noc(=S)[nH]5)cc4)CC3)nc2COCC(F)(F)F)cc1`, which XC50 is on record?
Its XC50 is 418 nM.

How did the XC50 turn out when `COc1ccc(-c2cnc3[nH]cc(-c4ccc(C(=O)O)cc4)c3c2)cn1` was run?
The XC50 was 541 nM.

How did the XC50 turn out when `CN(C)CCCNCCS(=O)(=O)c1cccc(Nc2ccc(-c3cccc(N(C)C)c3)cn2)c1` was run?
The XC50 was 859 nM.

Which XC50 does the source give for `N#CCSc1nnc(-c2ccccc2)c2ccccc12` here?
Its XC50 is 723 nM.

Which XC50 does the source give for `O=C(Nc1cccc(Cl)c1Cl)Nc1ccnc2ccccc12` here?
Its XC50 is 745 nM.

`CN1CCC(N(Cc2ccc(-c3ccc(Cl)cc3)cc2)C(=O)Cn2c(CCc3cccc(F)c3F)cc(=O)c3ccccc32)CC1` was tested. Which XC50 did it give?
Its XC50 is 865 nM.

`CN1CCC(C(=O)N(Cc2ccc(-c3ccc(CNCCc4ccc(S(C)(=O)=O)cc4)cn3)cc2)C2CCN(Cc3ccccc3)CC2)CC1` was tested. Which XC50 did it give?
The XC50 was 673 nM.

For `O=C(C1CCCC1)N1CCOC(CCN2CCC(c3ccccc3)CC2)(c2ccc(Cl)c(Cl)c2)C1` (stereo not given), which XC50 is on record?
The XC50 was 937 nM.

`O=C(Nc1nccs1)c1cc(-c2cccnc2)nc2ccc(Br)cc12` was tested. Which XC50 did it give?
The XC50 was 403 nM.

`O=C(NC1CC1)c1ccc(Nc2nccc(-c3c(-c4cccc(NC(=O)c5c(F)cccc5F)c4)nn4ccccc34)n2)cc1` was tested. Which XC50 did it give?
The XC50 was 411 nM.

For `Cc1cc(SC(C)(C)C)cc2c(Cl)c(C(N)=O)cnc12`, which XC50 is on record?
The XC50 was 1090 nM.

For `COc1ccc(CNCc2ccc(-c3ccc(-c4nc5ccccc5[nH]4)cc3)cc2)cc1`, which XC50 is on record?
Its XC50 is 241 nM.

Which XC50 does the source give for `CC[C@H](C)CNC(=O)c1cncc(-c2cccc(CN(C)C3CCN(C)CC3)c2)c1` here?
The XC50 was 785 nM.

How did the XC50 turn out when `COc1cc2ncnc(NCCc3ccccc3Cl)c2cc1OC` was run?
The XC50 was 1120 nM.

`CCCCCCc1cc(OC)c(OC)cc1C(C)Nc1ccnc2cc(Cl)ccc12` (stereo not given) was tested. Which XC50 did it give?
The XC50 was 488 nM.

`COc1cccc(-c2ccc3c(-c4cccc(S(C)(=O)=O)c4)cnc(N)c3c2)c1` was tested. Which XC50 did it give?
The XC50 was 874 nM.

`CCNC(=O)c1ccc2c(c1)c(C)c(C)n2Cc1ccc(F)cc1` was tested. Which XC50 did it give?
The XC50 was 767 nM.

For `Fc1ccc2[nH]c(-c3cccc(-c4ccc(CN5CCN(c6ccncc6)CC5)cc4)c3)nc2c1`, which XC50 is on record?
Its XC50 is 211 nM.

`COc1ccc2nccc([C@@H](O)CN3CCC(NCc4cc5ccccc5cn4)CC3)c2n1` was tested. Which XC50 did it give?
Its XC50 is 918 nM.

`COc1cc(NC(=O)Nc2ccc(Br)cc2C(=O)Nc2ccc(Br)cc2)cc(OC)c1OC` was tested. Which XC50 did it give?
The XC50 was 761 nM.

With `COc1ccc(-c2ccc(NC(=O)c3cccc(Cl)c3)c(F)c2)cc1CNC(C)C` as the compound, how does the XC50 read?
The XC50 was 895 nM.

For `CS(=O)(=O)c1ccc(CNCc2ccc(-c3ccc(-c4nc5cc(C(F)(F)F)ccc5[nH]4)cc3)cc2)cc1`, which XC50 is on record?
The XC50 was 706 nM.

`Cc1cccc2nc(-c3cccc(-c4ccc(NC(=O)C5CC(=O)Nc6ccccc65)cc4)c3)[nH]c12` (stereo not given) was tested. Which XC50 did it give?
The XC50 was 685 nM.

Which XC50 does the source give for `O=C(/C=C/c1ccc(Cl)c(Cl)c1)NCCCCN1CCC(c2c[nH]c3ccccc23)CC1` here?
Its XC50 is 859 nM.

For `O=[N+]([O-])c1cccc(CNCC2CCN(CCc3ccccc3)CC2)c1`, which XC50 is on record?
The XC50 was 785 nM.

Which XC50 does the source give for `O=c1cc(NCCC(CNCc2ccc(Br)o2)NCc2cc(Br)cc(Br)c2)[nH]c2ccccc12` (stereo not given) here?
Its XC50 is 860 nM.

How did the XC50 turn out when `CCCNCc1c(O)ccc2c(CNCCC)c(O)ccc12` was run?
The XC50 was 597 nM.

`COC(=O)Nc1nc2cc3c(cc2s1)OCCO3` was tested. Which XC50 did it give?
Its XC50 is 841 nM.

How did the XC50 turn out when `COc1ccc2ncc(F)c(CCN3CC[C@H](NCc4cc(C#N)c5c(c4)OCCO5)[C@H](O)C3)c2c1` was run?
The XC50 was 885 nM.

Which XC50 does the source give for `CCOc1ccc(C(=O)Nc2nonc2-c2ccc(OC)c(OC)c2)cc1` here?
The XC50 was 868 nM.

With `CCCN(CCC)C(=O)c1cc(C(=O)N[C@@H](Cc2ccccc2)[C@H](O)CNC2CC2)cc(N2CCCCS2(=O)=O)c1` as the compound, how does the XC50 read?
The XC50 was 156 nM.

Which XC50 does the source give for `COc1ccc(CNCc2ccc(F)cc2)cc1-c1ccc(S(=O)(=O)NCCN2CCCC2)cc1` here?
The XC50 was 1040 nM.

Which XC50 does the source give for `COc1ccc2c(c1)CC(C)(C)NC2CCCCCCCCC1NC(C)(C)Cc2cc(OC)ccc21` (stereo not given) here?
Its XC50 is 1300 nM.

Which XC50 does the source give for `COc1ccc(-c2ccc(CN(C)C3CCC(NC(=O)c4cc5ccccc5[nH]4)CC3)cc2)cn1` (stereo not given) here?
Its XC50 is 871 nM.

How did the XC50 turn out when `Cc1cccc2nc(-c3ccc(-c4ccc(NC(=O)NCc5cccc(F)c5)cc4)s3)[nH]c12` was run?
The XC50 was 887 nM.

`COc1ccc(CNC(=O)c2cnc3c(O)cccc3c2Nc2cccc(NC(=O)c3ccc(-c4ccccc4)cc3)c2)cc1` was tested. Which XC50 did it give?
Its XC50 is 941 nM.

How did the XC50 turn out when `COC(=O)c1ccc2[nH]cc(C3CCN(CCC4CCN(C(=O)/C=C/c5ccc(Cl)c(Cl)c5)CC4)CC3)c2c1` was run?
The XC50 was 512 nM.

With `Cc1cccc2nc(-c3ccc(-c4ccc(CNCc5cccc(N)c5)cc4)s3)[nH]c12` as the compound, how does the XC50 read?
Its XC50 is 751 nM.

`CC(C)CNc1nc(N)nc2ccc3c(ccn3CC(C)C)c12` was tested. Which XC50 did it give?
The XC50 was 649 nM.

Which XC50 does the source give for `O=C(c1cc(C(=O)NCc2ccc(Cl)cc2)c(=O)n(Cc2ccc(Cl)cc2)c1)c1cc(F)ccc1O` here?
Its XC50 is 949 nM.

With `Cc1cc(Nc2ccc(OCc3ccccc3Cl)cc2)c2cc(Cl)ccc2n1` as the compound, how does the XC50 read?
Its XC50 is 433 nM.

`CC1(C)N=C(N)N=C(N)N1OCCCOc1cc(Cl)c(Cl)cc1Cl` was tested. Which XC50 did it give?
Its XC50 is 3.2 nM.

`COCCCN=C(S)NN=C(C)c1ccccn1` was tested. Which XC50 did it give?
The XC50 was 296 nM.

`c1cncc(CN2CCCN(c3ccc4c(c3)CCN(Cc3ccc(-c5ncc[nH]5)cc3)CC4)CC2)c1` was tested. Which XC50 did it give?
The XC50 was 747 nM.

`CCCCN(CCCC)CCCCNc1c2ccccc2nc2ccccc12` was tested. Which XC50 did it give?
Its XC50 is 148 nM.

`COc1cc(F)c2ncc(Cl)c(CCN3CCC(NCc4cc5c(cn4)OCCO5)CC3)c2c1` was tested. Which XC50 did it give?
The XC50 was 481 nM.

`CCCNC[C@@H](O)[C@H](Cc1ccccc1)NC(=O)c1cc2c3c(c1)c(CC)cn3CCS(=O)(=O)N2C` was tested. Which XC50 did it give?
The XC50 was 101 nM.

`CCn1c(-c2nonc2N)nc2c(-c3cccc(Cl)c3)ncc(OCCCNCc3cnc(C)nc3N)c21` was tested. Which XC50 did it give?
The XC50 was 1010 nM.

How did the XC50 turn out when `OC1=C2C(=Nc3ccccc3SC2c2cccs2)c2ccccc21` (stereo not given) was run?
The XC50 was 229 nM.

`O=C(Nc1ccccc1)Nc1cccc(-c2cccc(-c3nc4cc(F)ccc4[nH]3)c2)c1` was tested. Which XC50 did it give?
Its XC50 is 176 nM.

`N=C1NC(=N)N(OCCCCCCON2C(=N)NC(=N)NC2C=Cc2ccccc2)C(C=Cc2ccccc2)N1` (stereo not given) was tested. Which XC50 did it give?
The XC50 was 615 nM.

`O=C(NCCNc1ccnc(Nc2ccc(F)cc2)n1)Nc1ccc2c(c1)OCO2` was tested. Which XC50 did it give?
The XC50 was 682 nM.

With `CC(CN(C)C)C(=O)Nc1ccc(-c2ccc(-c3nc4cc(F)ccc4[nH]3)cc2)cc1` (stereo not given) as the compound, how does the XC50 read?
The XC50 was 773 nM.

How did the XC50 turn out when `COc1cc(OC)cc(C(=O)Nc2ccc(Nc3nc(C)cc(N(C)C)n3)cc2)c1` was run?
The XC50 was 646 nM.

How did the XC50 turn out when `CS(=O)(=O)c1ccc(CCNCc2ccc(-c3ccc(CN(C(=O)c4cccc(C#N)c4)C4CCN(Cc5ccccc5)CC4)cc3)nc2)cc1` was run?
Its XC50 is 977 nM.

With `COc1ccc(NCCCNc2ccnc3ccccc23)cc1` as the compound, how does the XC50 read?
The XC50 was 966 nM.

With `CSc1cccc(NC(=O)Nc2ccc(I)c(OCCN(C)C)c2)c1` as the compound, how does the XC50 read?
The XC50 was 691 nM.

`Cc1cc2c(cc1C(F)(F)F)N(C(=O)Nc1cnc(OCCN(C)C)c(C(F)(F)F)c1)CC2` was tested. Which XC50 did it give?
Its XC50 is 966 nM.

With `COc1ccc(C=Cc2cc(=N)c3ccccc3[nH]2)cc1` as the compound, how does the XC50 read?
The XC50 was 969 nM.

How did the XC50 turn out when `O=c1cc(NCCC(CNCc2ccoc2)NCc2cc(Br)cc(Br)c2)[nH]c2ccccc12` (stereo not given) was run?
Its XC50 is 910 nM.

Which XC50 does the source give for `CC(=O)c1sc(NC(=O)Nc2ccc(C)cc2C)nc1C` here?
The XC50 was 906 nM.

Which XC50 does the source give for `CC(=O)Oc1c(Cl)c(C)nc(C)c1-c1ccc(Oc2ccc(OC(F)(F)F)cc2)cc1` here?
Its XC50 is 96.2 nM.
